What was measured:
[1] = Particle characteristics of LNPs containing EGFP mRNA and novel ionizable lipids; assay type: physicochemical; details: EGFP mRNA LNP 1.6:54.6:32.8:10.9
In short: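 LNPs of PEG-lipid, ionizable lipid, cholesterol and phospholipid in ethanol were mixed 1:1 with mRNA in 100 mM acetate pH 5 via T-junction, diluted in PBS, dialysed, concentrated to ~0.6 mg/mL and exchanged into 5 mM Tris, 10% sucrose, pH 8. Size and polydispersity by Zetasizer; nucleic acid by RiboGreen.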

[2] = test system: luciferase activity in the liver; experiment: Luciferase activity in liver after intravenous luciferase mRNA LNP; assay type: in vivo; details: 0.5 mg/kg IV, 6 h post-IV administration, BALB/c mice (n = 4)
[3] = Parent ionizable lipid remaining in liver at 6 h after luciferase mRNA LNP (LC-MS); assay type: in vivo; details: 6 h after IV 0.5 mg/kg Luciferase mRNA LNP
[4] = Lipid clearance from liver over time after human OTC mRNA LNP (LC-MS); assay type: in vivo; details: IV 0.5 mg/kg human OTC mRNA LNP, male C57BL/6 mice (n = 4)
Protocol: LNP formulations encapsulating ornithine transcarbamylase mRNA were injected intravenously at the specified dose levels to male C57BL/6 mice (6-8 weeks old).
(§1) Liver tissues were treated with PBS and homogenized with a FastPrep machine, 3 cycles of 5 m/s×15 s. Homogenates from the PBS-treated control animals was pooled and used for standard curve preparation. Samples were extracted into a deep well plate with 250 μL of an internal suitability standard. Plates were centrifuged for 15 min at 4° C. and 2000 rpm. Analysis was performed using an Agilent 6520 QTOF coupled to an Agilent 1290 UHPLC, using reverse-phase LC separation. Quantitation of the ionizable lipid was by MS/MS against a calibration curve spiked into appropriately matched blank matrix. Calibration used a similar class of synthetic lipid as internal standard.
At various timepoints post-dose, lipid levels were assessed in the liver. Some novel ionizable lipids reported more rapid clearance rates compared to the benchmark (Table 19).

[5] = Lipid clearance from liver over time after EGFP mRNA LNP (LC-MS); assay type: in vivo; details: IV 0.5 mg/kg EGFP mRNA LNP, female BALB/c mice (n = 4)
Protocol: as §1
At various timepoints post-dose, lipid levels were assessed in the liver. Some novel ionizable lipids reported more rapid clearance rates compared to the benchmark (Table 33).

For CCCCC/C=C\CCCC(CCC/C=C\CCCCC)C(CCC/C=C\CCCCC)OC(=O)CCCCN(C)C (stereo not shown) [Compound 13-B43, reference compound], the “Final Product % EE” value ([1]; Table 20) was 98%, the “Final Product PDI” value ([1]; Table 20) was 0.07 and the “Final Product Z-avg” value ([1]; Table 20) was 75 nm. The “Final Product % EE” value ([1]; Table 21) was 97%, the “Final Product PDI” value ([1]; Table 21) was 0.08 and the “Final Product Z-avg” value ([1]; Table 21) was 75 nm. The “Final Product % EE” value ([1]; Table 22) was 97%, the “Final Product PDI” value ([1]; Table 22) was 0.08 and the “Final Product Z-avg” value ([1]; Table 22) was 73 nm. The “Final Product % EE” value ([1]; Table 23) was 98%, the “Final Product PDI” value ([1]; Table 23) was 0.15 and the “Final Product Z-avg” value ([1]; Table 23) was 76 nm. The “Luc Activity” value ([2]; Table 8) was 5.94E+07 pg/g liver, the “Luc Activity” value ([2]; Table 9) was 7.29E+07 pg/g liver and the “Luc Activity” value ([2]; Table 10) was 7.04E+07 pg/g liver. For the same molecule, the “Luc Activity” value ([2]; Table 11) was 6.86E+07 pg/g liver, the “Luc Activity” value ([2]; Table 12) was 7.83E+07 pg/g liver and the “Luc Activity” value ([2]; Table 13) was 7.60E+07 pg/g liver. The “Luc Activity” value ([2]; Table 14) was 6.02E+07 pg/g liver, the “Parent ionizable lipid remaining in liver, Average” value (shortened to “Parent ionizable lipid remaining”) ([3]; Table 16, female BALB/c mice (n = 4)) was 22.64 nmol/g liver and the “Parent ionizable lipid remaining” value ([3]; Table 17, female mice (n = 4)) was 43.87 nmol/g liver. For the same molecule, the “Parent ionizable lipid remaining” value ([3]; Table 18, female BALB/c mice (n = 4)) was 63.32 nmol/g liver, the “Parent ionizable lipid remaining” value ([4]; 0.25 h post-dose) was 29.17 nmol/g liver and the “Parent ionizable lipid remaining” value ([4]; 1 h post-dose) was 46.37 nmol/g liver. For the same molecule, the “Parent ionizable lipid remaining” value ([4]; 3 h post-dose) was 63.61 nmol/g liver, the “Parent ionizable lipid remaining” value ([4]; 6 h post-dose) was 45.23 nmol/g liver and the “Parent ionizable lipid remaining” value ([4]; 24 h post-dose) was 40.01 nmol/g liver. For the same molecule, the “Parent ionizable lipid remaining” value ([4]; 168 h post-dose) was 34.42 nmol/g liver, the “Parent ionizable lipid remaining” value ([5]; 0.25 h post-dose) was 29.8 nmol/g liver and the “Parent ionizable lipid remaining” value ([5]; 1 h post-dose) was 31.2 nmol/g liver. The “Parent ionizable lipid remaining” value ([5]; 3 h post-dose) was 40.2 nmol/g liver, the “Parent ionizable lipid remaining” value ([5]; 6 h post-dose) was 45.2 nmol/g liver and the “Parent ionizable lipid remaining” value ([5]; 24 h post-dose) was 26.4 nmol/g liver. The “Parent ionizable lipid remaining” value ([5]; 168 h post-dose) was 25.6 nmol/g liver.

From patent US20250332112A1, “IONIZABLE CATIONIC LIPIDS FOR LIPID NANOPARTICLES” (GENEVANT SCIENCES GMBH, priority 2022, published 2025)
